Source: patent US20230219979A1, “PYRAZOLO[1,5-a]PYRIDINE COMPOUND, PREPARATION METHOD THEREFOR AND USE THEREOF” (SHENZHEN ZHONGGE BIOLOGICAL TECHNOLOGY CO., LTD., priority 2019, published 2023)

target: Wild-type RET kinase (Homo sapiens, UniProt P07949); test: HTRF method for testing the inhibitory activity of compounds against RET; assay type: biochemical; details: not given
Sequence (P07949 29-1114): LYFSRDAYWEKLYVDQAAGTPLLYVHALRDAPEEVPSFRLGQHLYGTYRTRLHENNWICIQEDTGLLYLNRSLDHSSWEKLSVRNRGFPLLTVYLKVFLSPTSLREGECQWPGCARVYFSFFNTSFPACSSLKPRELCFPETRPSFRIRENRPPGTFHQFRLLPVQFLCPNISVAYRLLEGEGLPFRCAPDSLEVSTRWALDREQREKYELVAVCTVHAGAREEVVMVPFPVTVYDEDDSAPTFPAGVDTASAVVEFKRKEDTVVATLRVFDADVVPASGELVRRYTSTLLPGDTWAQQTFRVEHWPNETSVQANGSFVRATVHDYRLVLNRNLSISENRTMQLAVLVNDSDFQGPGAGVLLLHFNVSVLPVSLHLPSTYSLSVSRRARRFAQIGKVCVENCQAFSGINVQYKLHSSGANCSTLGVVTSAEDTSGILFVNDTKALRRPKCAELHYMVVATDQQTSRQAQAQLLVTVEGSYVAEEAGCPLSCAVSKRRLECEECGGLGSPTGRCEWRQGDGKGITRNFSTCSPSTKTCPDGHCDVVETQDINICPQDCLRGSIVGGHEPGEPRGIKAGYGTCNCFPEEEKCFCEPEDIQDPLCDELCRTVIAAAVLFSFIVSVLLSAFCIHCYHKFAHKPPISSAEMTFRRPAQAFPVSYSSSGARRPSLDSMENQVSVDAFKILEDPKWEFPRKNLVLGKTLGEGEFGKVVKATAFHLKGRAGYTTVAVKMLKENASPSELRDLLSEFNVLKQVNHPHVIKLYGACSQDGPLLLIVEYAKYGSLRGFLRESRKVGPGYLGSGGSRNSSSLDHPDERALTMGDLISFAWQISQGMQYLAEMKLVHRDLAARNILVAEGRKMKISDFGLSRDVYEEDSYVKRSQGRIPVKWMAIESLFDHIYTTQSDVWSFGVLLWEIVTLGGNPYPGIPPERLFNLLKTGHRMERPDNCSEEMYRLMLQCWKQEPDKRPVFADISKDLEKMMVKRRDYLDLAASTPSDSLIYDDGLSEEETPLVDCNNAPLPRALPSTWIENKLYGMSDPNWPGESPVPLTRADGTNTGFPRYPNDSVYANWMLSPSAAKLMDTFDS

Work on CCNC(=O)Oc1cc(-c2cnc(N3CC4CC(C3)N4Cc3ccc(OC)nc3)cn2)c2c(C#N)cnn2c1 [Compound 42, 3-cyano-4-(5-(6-((6-methoxypyridin-3-yl)methyl)-3,6-diazabicyclo[3.1.1]heptan-3-yl)pyrazin-2-yl)pyrazolo[1,5-a]pyridin-6-ylethylcarbamate] yielded an IC50 of 9.2 nM.

same assay, conditions: HTRF; read-out: Wild-type RET kinase

First: CCNC(=O)c1cnn2cc(-c3cnn(C)c3)cc(-c3ccc(N4CCN(c5ccc(OC)nc5)CC4)nc3)c12 [Compound 3, N-ethyl-4-(6-(4-(6-methoxypyridin-3-yl)piperazin-1-yl)pyridin-3-yl)-6-(1-methyl-1H-pyridinoxazol-4-yl)H-pyrazolo[1,5-a]pyridine-3-carboxamide]
Second: CNC(=O)c1cnn2cc(-c3cnn(C)c3)cc(-c3ccc(N4CCN(Cc5ccc(OC)nc5)CC4)nc3)c12 [Compound 6]
The IC50 of the first is higher: over 10000 nM for the first, 678 nM for the second. The second is the more potent here.

Compared with COc1ccc(CN2CCN(c3ccc(-c4cc(-c5cnn(C)c5)cn5ncc(NC(C)=O)c45)cn3)CC2)cn1 [Compound 4, N-(4-(6-(4-((6-methoxypyridin-3-yl)methyl)piperazin-1-yl)pyridin-3-yl)-6-(1-methyl-1H-pyrazol-4-yl)pyrazol[1,5-a]pyridin-3-yl)acetamide], CNC(=O)Nc1cnn2cc(-c3cnn(C)c3)cc(-c3ccc(N4CCN(Cc5ccc(OC)nc5)CC4)nc3)c12 [Compound 9, 1-(4-(6-(4-((6-methoxypyridin-3-yl)methyl)piperazin-1-yl)pyridin-3-yl)-6-(1-methyl-1H -pyrazol-4-yl)pyrazolo[1,5-a]pyridin-3-yl)-3-methylurea] is higher in IC50: 6590 nM for the first, over 10000 nM for the second. The first is the more potent here.

COc1ccc(CN2CCN(c3ccc(-c4cc(-c5cnn(C)c5)cn5ncc(C(=O)NC(C)C)c45)cn3)CC2)cn1 [Compound 5] and COc1ccc(CN2CCN(c3ccc(-c4cc(-c5cnn(C)c5)cn5ncc(NC(=O)C6CC6)c45)cn3)CC2)cn1 [Compound 10, N-(4-(6-(4-((6-methoxypyridin-3-yl)methyl)piperazin-1-yl)pyridin-3-yl)-6-(1-methyl-1H-pyrazol-4-yl)pyrazolo[1,5-a]pyridin-3-yl)cyclopropanecarboxamide] cannot be ordered by IC50: over 10000 nM for the first, over 10000 nM for the second.

COc1ccc(CN2CCN(c3ccc(-c4cc(-c5cnn(C)c5)cn5ncc(NC(=O)c6ccccc6)c45)cn3)CC2)cn1 [Compound 11, N-(4-(6-(4-((6-methoxypyridin-3-yl)methyl)piperazin-1-yl)pyridin-3-yl)-6-(1-methyl-1H-pyrazol-4-yl)pyrazolo[1,5-a]pyridin-3-yl)benzamide] and COc1ccc(CN2CCN(c3ccc(-c4cc(-c5cnn(C)c5)cn5ncc(NC(=O)c6cncn6C)c45)cn3)CC2)cn1 [Compound 12, N-(4-(6-(4-((6-methoxypyridin-3-yl)methyl)piperazin-1-yl)pyridin-3-yl)-6-(1-methyl-1H-pyrazol-4-yl)pyrazolo[1,5-a]pyridin-3-yl)-1-methyl-1H-imidazole-5-carboxamide] cannot be ordered by IC50: over 10000 nM for the first, over 10000 nM for the second.

First: COc1ccc(CN2C3CC2CN(c2cnc(-c4cc(NCC5CC5)cn5ncc(C#N)c45)cn2)C3)cn1 [Compound 53]
Second: COc1ccc(CN2C3CC2CN(c2ccc(-c4cc(NCC5CCOCC5)cn5ncc(C#N)c45)cn2)C3)cn1 [Compound 54, 4-(6-(6-((6-methoxypyridin-3-yl)methyl)-3,6-diazabicyclo[3.1.1]heptyl-3-yl)pyridin-3-yl)-6-(((-2H-pyran-4-yl)methyl)amino)pyrazolo[1,5-a]pyridine-3-carbonitrile]
The IC50 of the first is 2-fold higher: 5.54 nM for the first, 2.76 nM for the second. The second is the more potent here.

COc1ccc(CN2C3CC2CN(c2cnc(-c4cc(N(C)CCN(C)C)cn5ncc(C#N)c45)cn2)C3)cn1 [Compound 58, 6-((2-(dimethylamino)ethyl)(methyl)amino)-4-(5-(6-((6-methoxypyridin-3-yl)methyl)-3,6-diazabicyclo[3.1.1]heptan-3-yl)pyrazin-2-yl)pyrazolo[1,5-a]pyridine-3-carbonitrile] was tested, and the IC50 was 10.4 nM.
